# From US20050180982A1, “Cadherin-11 expression, an assay and treatment for cellular invasiveness” (THE UNIVERSITY OF BRITISH COLUMBIA, priority 1998, published 2005)
# How the values were obtained:
# [1] = system: cad-6 mRNA in human granulosa cells; test: Specificity of antisense in granulosa cells, Northern blot, cad-6 probe; assay type: cell-based; conditions: 0.5-5 M, 24 hours
# Method: (§1) In order to determine the specificity of OB-1, the effect of OB-1 was determined in human granulosa cells. Human granulosa cells express three cadherin subtypes (cad-11, cad-6 and N-cad) as they undergo spontaneous luteinization in culture. Granulosa cells which had been cultured for 36 hours were treated with OB-1 or OB-3 (0.5-5 M). The cultures were maintained for a further 24 hours, after which the cells were harvested for Northern analysis. Northern blots were probed with cad-11, cad-6, or N-cadherin (neural cadherin) cDNA probes as previously described. OB-1 caused a reduction in the levels of the cad-11 RNA transcript in a dose-dependent manner but had no effect on cad-6 or N-cadherin mRNA levels. In contrast.
# [2] = system: cad-11 RNA transcript in human granulosa cells; test: Specificity of antisense in granulosa cells, Northern blot, cad-11 probe; assay type: cell-based; set-up: dose or concentration left out as unconfirmed; conditions: 24 hours, dose-dependent manner for OB-1
# Method: as §1
# human decidual cells [3] = test: Effect on primary cultures of human decidual cells; set-up: cell interactions and attachment: dose or concentration left out as unconfirmed; conditions: for 24 hours
# [4] = system: E-cad in cytotrophoblasts isolated from term placenta; test: Western blot of E-cad in term placenta cytotrophoblasts treated with oligonucleotide; assay type: cell-based, human; conditions: 5 NI, further 24 or 48 hours
# Method: (§2) Cellular aggregation in these cultures is observed after approximately 12 hours, with syncytial structures being observed after approximately 24 hours. After 72 hours, multinucleated syncytium is the predominant cell feature in these cultures. As described above, the terminal differentiation and fusion of these cells is associated with an increase in cad-11 mRNA and protein expression levels and a concomitant decrease in E-cad expression.
# (§3) The effects of OB-1 on the differentiation of these trophoblasts isolated from term placenta was determined. Cytotrophoblasts were cultured for 0, 6, 12 or 24 hours before being treated with either OB-1 or OB-3 (5 NI). The cultures were maintained for a further 24 or 48 hours, after which the cells were harvested for Western blot analysis.
# [5] = system: Cos-1 cells transfected with the steroid acute regulatory protein; test: Non-specific effects on cell number and steroidogenic capacity in Cos-1 cells; assay type: cell-based; set-up: cell number (Coulter cell counter): dose or concentration left out as unconfirmed
# Method: Non-specific effects of the antisense oligonucleotides on cell viability and the steroidogenic capacity of cells was determined using Cos-1 cells transfected with the steroid acute regulatory protein (from Dr. J. F. Strauss, III. University of Pennsylvania, Philadelphia, Pa.). […] The COS-1 cells were cultured in the presence or absence of varying concentrations of OB-1 OR OB-3 (0.5-5 M) for 48 hours. The cell number present in each culture was determined using a Coulter™ cell counter and P4 concentrations present in the culture medium using a Progesterone RIA™ kit. As determined by these parameters.
# villous cytotrophoblasts [6] = test: P4 and hCG in culture medium of villous cytotrophoblasts (functional differentiation); assay type: cell-based, human; conditions: compared with OB-3 treated cells
# Method: To determine whether reduced cad-11 expression in villous cytotrophoblasts would affect the functional differentiation of the primary cell cultures, concentrations of P4 and hCG were measured in the culture medium. The number of cells present in these cell cultures was determined by DNA content.
# [7] = system: cytotrophoblasts isolated from term placenta; test: Morphology of cytotrophoblasts by light microscopy and indirect immunofluorescence; assay type: cell-based, human
# Source text: The effect of OB-1 and OB-3 on the morphology of the cytotrophoblast was examined by light microscopy and indirect immunofluoresence.
# [8] = system: cad-11 in decidual explants; test: Western blot of cad-11 in decidual explants; assay type: cell-based, human; set-up: dose or concentration left out as unconfirmed
# Method: Co-cultures of decidua parietalis and villous placenta were established on a three-dimensional gel of rat tail collagen. The decidua and the villous tissue were cut into 1-2 mm cubes, explants were placed in 35 nun culture dishes containing 0.1 ml of the collagen mixture. After the gel had formed, a piece of villous tissue, suspended in 0.05 ml of culture medium was placed on to the exposed decidual surface. After 2 hours, the plates were flooded with culture medium. Stable adhesion between the villous and decidual tissues occurred within 48 hours. Samples are harvested after 48, 72, or 96 hours of culture. Tissues were embedded in OCT compound, snap frozen, and frozen section prepared. Blocks containing the co-cultures were cut in-full in order to obtain information about the three dimensional aspect of the contact sites. Contact sites were identified by hematoxylin staining and confirmed by immunostaining for cytokeratin. In the areas of contact, there was cytotrophoblast layering leading to localized erosion of the syncytial trophoblast and the formation of an extravillous column, which penetrates the underlying decidual explant.
# In order to determine whether the cad-11 antisense oligonucleotides could decrease cad-11 expression in tissue explants, decidual explants were cultured in the presence of OB-1 or OB-3 (5 M) for 24 hours.
# villous cytotrophoblasts [9] = test: Reversibility of oligonucleotide effects on villous cytotrophoblasts; assay type: cell-based, human; conditions: 48 hours with oligonucleotide, washed, further 24 hours
# Method: To determine whether the effects of OB-1 on villous cytotrophoblasts are reversible, cells were cultured in the presence of OB-1 or OB-3 for 48 hours. The cells were washed thoroughly with PBS. The culture medium was then replaced and the cells cultured for a further 24 hours. […] The majority of cells (90%) detached from the culture and dish. Cad-11 was not detected in the remaining cells.
# [10] = system: PC3 cells treated with TGF-1
# [11] = system: Villous cytotrophoblasts isolated from the human term placenta, cultured 72 hours
# [12] = system: cad-11 in cytotrophoblasts isolated from term placenta; test: Western blot of cad-11 in term placenta cytotrophoblasts treated with oligonucleotide; assay type: cell-based, human; conditions: 5 NI, further 24 or 48 hours
# Method: as §2, §3
# [13] = system: N-cadherin mRNA in human granulosa cells; test: Specificity of antisense in granulosa cells, Northern blot, N-cadherin probe; assay type: cell-based; conditions: 0.5-5 M, 24 hours
# Method: as §1
# [14] = system: PC3 cells treated with TGF-1; test: Effect of oligonucleotides on PC3 cells treated with TGF-1; set-up: cell interactions and attachment: dose or concentration left out as unconfirmed; conditions: for 24 hours
# human decidual cells [15] = system: human decidual cells
# [16] = system: BeWo choriocarcinoma cells; test: BeWo choriocarcinoma cells cultured with cAMP, differentiation and fusion; assay type: cell-based
substance,measurement,setting,value
"OB-1: cad-11 antisense oligonucleotide, 18 mer, phosphothiorate: GGC GGC TTG TAA ACA GTA (SEQ ID NO:1) (antisense GGCGGCTTGTAAACAGTA; all phosphorothioate, sugars by position and methylation of C not given here; listed as Homo sapiens)",cad-6 mRNA levels,[1],no effect
same,levels of the cad-11 RNA transcript,[2],reduction
same,cell interactions and attachment,human decidual cells [3],lose interactions with one another and detach from the plastic in a dose-dependent manner
same,E-cad levels,[4],remained constant
same,"steroidogenic capacity (P4 concentrations in culture medium, RIA)",[5]; 0.5-5 M for 48 hours,did not have a significant effect
same,cell number (Coulter cell counter),[5]; for 48 hours,did not have a significant effect
same,levels of P4 in the culture medium,villous cytotrophoblasts [6],significantly lower
same,levels of hCG in the culture medium,villous cytotrophoblasts [6],significantly lower
same,composition of cellular structures formed (fusion),[7]; indirect immunofluorescence for E-cadherin,mononucleate cytotrophoblasts
same,ability of the cytotrophoblasts to aggregate,[7]; light microscopy,did not appear to affect
same,cad-11 expression,[8],significantly reduced
same,cad-11 in the remaining cells,villous cytotrophoblasts [9],not detected
same,cell viability after wash-out,villous cytotrophoblasts [9],no longer viable
same,cells detached from the culture dish,villous cytotrophoblasts [9],90%
same,viability by trypan blue staining,[10],no longer viable
same,viability of syncytial structures (trypan blue),[11],no longer viable
same,structures observed (phase contrast microscopy),"[11]; oligonucleotide added after 72 hours of culture, OB-1 for 24 hours",cellular debris
same,cad-11 expression with time in culture,[12],failed to up-regulate
same,N-cadherin mRNA levels,[13],no effect
same,cell interactions and attachment,[14],"lose interactions with one another, and detach from the plastic in a dose-dependent manner"
same,viability by trypan blue staining,human decidual cells [15],no longer viable
same,cellular differentiation and fusion,[16]; cells cultured in the presence of cAMP for 12 hours,inhibiting cellular differentiation and fusion
same,membrane integrity of the syncytial structures,[16]; syncytial structures formed after 24 hours of cAMP,disrupted the membrane integrity
